The values that follow come from patent US20240252677A1, “ONE-COMPONENT DELIVERY SYSTEM FOR NUCLEIC ACIDS” (The Trustees of the University of Pennsylvania, priority 2021, published 2024).

One may read the pKa as the negative logarithm of the acid dissociation constant.

For one series, the system named is spleen. As to the kind of experiment: In vivo mRNA delivery, IVIS imaging of organs: spleen. More on the design: species or system mice; key to Organs with luminescence: spleen: strong: Strong meant the luminescence intensity in that organ was relatively high, compared to other organs; weak: Weak meant the luminescence intensity in that organ was relatively low, compared to other organs. Conditions: for Organs with luminescence: spleen (weak/strong): Table 14; for Organs with luminescence: spleen: Table 17, mice, IVIS, 4-6 h after injection, intensity relative to other organs.

The next series relates to BALB/c mice. Conditions: cited from earlier work.
Series [1] can be described thus: pKa measurements of individual IAJD molecules by titration. Particulars: ethanol saturated with NaCl, titrated with 0.1 M aqueous HCl; Table 15; individual IAJD molecule, titration. In kind it is physicochemical. In outline:
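pKa derived by half-equivalence-point analysis of a pH-meter titration curve: 0.1 M HCl added in 7.5 μL increments to a 1.5 mg/mL solution of each molecule in ethanol saturated with NaCl.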

Series [2] can be described thus: Dimensions (size, PDI) of DNPs co-assembled from IAJDs and Luc-mRNA by DLS. The series is classed as physicochemical. In outline: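 Hydrodynamic size and PDI were read by dynamic light scattering at 23 °C, 175° backscatter, 633 nm. Particles formed by fast injection of ethanolic IAJD stock (80 mg/mL) into nucleoside-modified luciferase mRNA (stock 4.0 mg/mL) in 10 mM acetate pH 4.0, 5 s vortex.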

The subject of another series is liver. As to the kind of experiment: In vivo mRNA delivery, IVIS imaging of organs: liver. More on the design: species or system mice; key to Organs with luminescence: liver: strong: Strong meant the luminescence intensity in that organ was relatively high, compared to other organs; weak: Weak meant the luminescence intensity in that organ was relatively low, compared to other organs. Conditions: for Organs with luminescence: liver (weak/strong): Table 14; for Organs with luminescence: liver: Table 17, mice, IVIS, 4-6 h after injection, intensity relative to other organs.

For series [3] the following is noted: Table 16, IAJDs marked a (Zhang et al., J. Am. Chem. Soc. 2021); IAJD 4 mg/mL, Luc-mRNA 0.10 mg/mL, acetate buffer 10 mM pH 4.0; cited from earlier work.
The mark [4] stands for this setting: Table 18, symmetric IAJDs, results available in the literature.
Setting [5] is: Table 12, DNPs, IAJD 4 mg/mL + Luc-mRNA 0.10 mg/mL, acetate buffer 10 mM pH 4.0.
The mark [6] stands for this setting: Table 13, DNPs, IAJD 4 mg/mL + Luc-mRNA 0.10 mg/mL, acetate buffer pH 4.0.
[7] abbreviates: Table 14, DNPs, IAJD 4 mg/mL + Luc-mRNA 0.10 mg/mL, acetate buffer pH 4.0.
Where [8] appears, read: Table 17, DNPs used in vivo, IAJD 4 mg/mL, Luc-mRNA 0.10 mg/mL, acetate pH 4.0.
Where [9] appears, read: Table 20, corresponding symmetric IAJDs (literature per Table 18).

Where two headings read alike, the source gives them in different places.

For `CCCCCCCCCOc1cc(COC(=O)CCCN2CCN(C)CC2)cc(OCCCCCCCCC)c1` [IAJD 77, 3,5-Bis(nonyloxy)benzyl 4-(4-methylpiperazin-1-yl)butanoate], the “Organs with luminescence: spleen (weak/strong)” value (from here on “Organs … spleen (weak/strong)”) in the series with spleen (imaging 5 h after injection) was “spleen (strong)”. The “In vivo activity (total flux, p/s)” value in the series with BALB/c mice (setting [4]) is on record as 2.44 × 10^6 p/s. This molecule showed a pKa in series [1] of 6.4. In addition, the PDI in series [2] (setting [5]), in series [2] (setting [6]) and in series [2] (setting [7]) was 0.267 each time. Also, the “Size (d, nm)” value in series [2] (setting [5]), in series [2] (setting [6]) and in series [2] (setting [7]) was 110 nm each time. Further, the “Organs with luminescence: liver (weak/strong)” value (from here on “Organs … liver (weak/strong)”) in the series on liver (imaging 5 h after injection) is “liver (weak),”.

With `CCCCCCCCCCCCCCCCCCOc1cc(COC(=O)CCCN2CCN(C)CC2)cc(OCCCCCCCCCCC)c1` [IAJD 81, 3-(Octadecyloxy)-5-(undecyloxy)benzyl 4-(4-methylpiperazin-1-yl)butanoate], the “Organs … spleen (weak/strong)” value with spleen (imaging 6 h after injection) is “spleen (weak)”. Also, the “Organs with luminescence: spleen” value in the series with spleen is given as “spleen (weak)”. In series [1], this molecule gave a pKa of 6.19. Moreover, the PDI in series [2] (setting [5]), in series [2] (setting [6]), in series [2] (setting [7]), in series [2] (setting [8]) and in series [3] was 0.287 in each case. Further, the “Size (d, nm)” value in series [2] (setting [5]), in series [2] (setting [6]), in series [2] (setting [7]), in series [2] (setting [8]) and in series [3] was 111 nm each time. Moreover, the “Organs … liver (weak/strong)” value with liver (imaging 6 h after injection) is recorded as “liver (strong),”. Also, the “Organs with luminescence: liver” value in the series with liver is “liver (strong),”.

In the case of `CCCCCCCCCCCCCCCCOc1cc(COC(=O)CCCN2CCN(C)CC2)cc(OCCCCCCCCCCC)c1` [IAJD 86, 3-(Hexadecyloxy)-5-(undecyloxy)benzyl 4-(4-methylpiperazin-1-yl)butanoate], the “Organs … spleen (weak/strong)” value in the series on spleen (imaging 5 h after injection) is given as “spleen (weak)”. The “Organs with luminescence: spleen” value in the series with spleen is given as “spleen (weak)”. For the same molecule, in series [1], the pKa was found to be 6.24. Moreover, the PDI in series [2] (setting [5]), in series [2] (setting [6]), in series [2] (setting [7]), in series [2] (setting [8]) and in series [3] was 0.234 each time. The “Size (d, nm)” value in series [2] (setting [5]), in series [2] (setting [6]), in series [2] (setting [7]), in series [2] (setting [8]) and in series [3] was 91 nm throughout. Besides, in the series on liver (imaging 5 h after injection), the “Organs … liver (weak/strong)” value is recorded as “liver (strong),”. In addition, the “Organs with luminescence: liver” value in the series on liver is listed as “liver (strong),”.

With `CCCCC(CC)COc1cc(COC(=O)CCCN2CCN(CCO)CC2)cc(OCC(CC)CCCC)c1` (stereo not shown) [IAJD 87, 3,5-Bis((2-ethylhexyl)oxy)benzyl 4-(4-(2-hydroxyethyl)piperazin-1-yl)butanoate], the “Organs … spleen (weak/strong)” value in the series on spleen (imaging 6 h after injection) was “spleen (strong)”. Moreover, the “In vivo activity (total flux, p/s)” value with BALB/c mice (setting [4]) and with BALB/c mice (setting [9]) was 3.24 × 10^7 p/s each time. Moreover, the pKa in series [1] turned out to be 6.49. For the same molecule, the PDI in series [2] (setting [5]), in series [2] (setting [6]) and in series [2] (setting [7]) was 0.486 in each case. Besides, the “Size (d, nm)” value in series [2] (setting [5]), in series [2] (setting [6]) and in series [2] (setting [7]) was 146 nm in each case. For the same molecule, the “Organs … liver (weak/strong)” value in the series on liver (imaging 6 h after injection) is given as “liver (weak),”.

Consider `CCCCCCCCOc1cc(COC(=O)CCCN2CCN(C)CC2)cc(OCCCCCCCC)c1` [IAJD 88, 3,5-Bis(octyloxy)benzyl 4-(4-methylpiperazin-1-yl)butanoate], for which the “Organs … spleen (weak/strong)” value with spleen (imaging 6 h after injection) is “spleen (strong)”. In addition, in the series with BALB/c mice (setting [4]), the “In vivo activity (total flux, p/s)” value is reported as 2.34 × 10^6 p/s. This molecule yielded a pKa in series [1] of 6.28. Besides, the PDI in series [2] (setting [5]), in series [2] (setting [6]) and in series [2] (setting [7]) was 0.342 in each case. Moreover, the “Size (d, nm)” value in series [2] (setting [5]), in series [2] (setting [6]) and in series [2] (setting [7]) was 100 nm in each case. For the same molecule, the “Organs … liver (weak/strong)” value in the series on liver (imaging 6 h after injection) is “liver (weak),”.

Regarding `CCCCCCCCOc1cc(COC(=O)CCCN2CCN(CCO)CC2)cc(OCCCCCCCC)c1` [IAJD 89], in the series on spleen (imaging 6 h after injection), the “Organs … spleen (weak/strong)” value is on record as “spleen (strong)”. Also, the “In vivo activity (total flux, p/s)” value in the series on BALB/c mice (setting [4]) was 5.92 × 10^7 p/s. Moreover, the pKa in series [1] is 6.45. For the same molecule, the PDI in series [2] (setting [5]), in series [2] (setting [6]) and in series [2] (setting [7]) was 0.467 each time. Also, the “Size (d, nm)” value in series [2] (setting [5]), in series [2] (setting [6]) and in series [2] (setting [7]) was 149 nm each time. Further, in the series with liver (imaging 6 h after injection), the “Organs … liver (weak/strong)” value is reported as “liver (weak),”.

Turning to `CCCCCCCCCCOc1cc(COC(=O)CCCN2CCN(CCO)CC2)cc(OCCCCCCCCCC)c1` [IAJD 91, 3,5-Bis(decyloxy)benzyl 4-(4-(2-hydroxyethyl)piperazin-1-yl)butanoate], the “Organs … spleen (weak/strong)” value in the series on spleen (imaging 6 h after injection) is given as “spleen (strong)”. Further, the “In vivo activity (total flux, p/s)” value with BALB/c mice (setting [4]) was 9.94 × 10^6 p/s. The molecule further displayed a pKa in series [1] of 6.48. Also, the PDI in series [2] (setting [5]), in series [2] (setting [6]) and in series [2] (setting [7]) was 0.498 each time. For the same molecule, the “Size (d, nm)” value in series [2] (setting [5]), in series [2] (setting [6]) and in series [2] (setting [7]) was 188 nm throughout. Further, in the series on liver (imaging 6 h after injection), the “Organs … liver (weak/strong)” value is on record as “liver (weak),”.

Turning to `CCCCCCCCCCCCCCCCCCOc1cc(COC(=O)CCCN2CCN(C)CC2)cc(OCCCCCCCCCCCCCCCCCC)c1` [IAJD 98, 3,5-Bis(octadecyloxy)benzyl 4-(4-methylpiperazin-1-yl)butanoate], the “Organs … spleen (weak/strong)” value in the series on spleen (imaging 6 h after injection) is “spleen (strong)”. The “In vivo activity (total flux, p/s)” value in the series on BALB/c mice (setting [4]) and in the series on BALB/c mice (setting [9]) was 2.06 × 10^6 p/s each time. This molecule showed a pKa in series [1] of 6.25. Moreover, the PDI in series [2] (setting [5]), in series [2] (setting [6]) and in series [2] (setting [7]) was 0.221 in each case. The “Size (d, nm)” value in series [2] (setting [5]), in series [2] (setting [6]) and in series [2] (setting [7]) was 187 nm throughout. Besides, the “Organs … liver (weak/strong)” value in the series on liver (imaging 6 h after injection) is reported as “liver (weak),”.

As for `CCCCCCCCCCCCCCCCCCOc1cc(COC(=O)CCCN2CCN(CCO)CC2)cc(OCCCCCCCCCCCCCCCCCC)c1` [IAJD 99, 3,5-Bis(octadecyloxy)benzyl 4-(4-(2-hydroxyethyl)piperazin-1-yl)butanoate], in the series on spleen (imaging 6 h after injection), the “Organs … spleen (weak/strong)” value was “spleen (strong)”. Further, the “In vivo activity (total flux, p/s)” value in the series with BALB/c mice (setting [4]) and in the series with BALB/c mice (setting [9]) was 4.49 × 10^6 p/s in each case. The molecule also gave a pKa in series [1] of 6.31. Besides, the PDI in series [2] (setting [5]), in series [2] (setting [6]) and in series [2] (setting [7]) was 0.571 throughout. Besides, the “Size (d, nm)” value in series [2] (setting [5]), in series [2] (setting [6]) and in series [2] (setting [7]) was 277 nm each time. The “Organs … liver (weak/strong)” value with liver (imaging 6 h after injection) is on record as “liver (weak),”.

Turning to `CCCCCCCCCCCCCCOc1cc(COC(=O)CCCN2CCN(C)CC2)cc(OCCCCCCCCCCC)c1` [IAJD 105, 3-(Tetradecyloxy)-5-(undecyloxy)benzyl 4-(4-methylpiperazin-1-yl)butanoate], the “Organs … spleen (weak/strong)” value in the series on spleen (imaging 6 h after injection) is “spleen (weak)”. Besides, in the series with spleen, the “Organs with luminescence: spleen” value is reported as “spleen (weak)”. The molecule further gave a pKa in series [1] of 6.5. In addition, the PDI in series [2] (setting [5]), in series [2] (setting [6]), in series [2] (setting [7]), in series [2] (setting [8]) and in series [3] was 0.294 each time. The “Size (d, nm)” value in series [2] (setting [5]), in series [2] (setting [6]), in series [2] (setting [7]), in series [2] (setting [8]) and in series [3] was 94 nm in each case. For the same molecule, the “Organs … liver (weak/strong)” value in the series with liver (imaging 6 h after injection) was “liver (strong),”. In the series with liver, the “Organs with luminescence: liver” value is recorded as “liver (strong),”.
